# Results reported in ChEMBL document CHEMBL5360657, “Discovery of the TLR7/8 Antagonist MHV370 for Treatment of Systemic Autoimmune Diseases” (ACS Med Chem Lett, 2023).
# Experiments:
# [1] = MRT in rat at 1 mg/ml, po or iv; assay type: ADME, organism-based; details: in vivo
# [2] = MRT in mouse at 1 mg/ml, po or iv; assay type: ADME, organism-based; details: in vivo
# [3] = Volume of distribution at steady state in mouse at 1 mg/ml, po or iv; assay type: ADME, organism-based; details: in vivo
# [4] = Volume of distribution at steady state in rat at 1 mg/ml, po or iv; assay type: ADME, organism-based; details: in vivo
# [5] = AUC in mouse at 1 mg/ml, po; assay type: ADME; design: dose 1 mg/ml, route po; details: in vivo
# [6] = Oral bioavailability in mouse at 1 mg/ml; assay type: ADME, organism-based; details: in vivo
# [7] = AUC in mouse at 1 mg/ml, iv; assay type: ADME; design: dose 1 mg/ml, route iv; details: in vivo
# [8] = molecular target: T1, Toll-like receptor 7 (Homo sapiens, UniProt Q9NYK1); experiment: Antagonist activity at TLR7 in human PBMC cells assessed as reduction in IFN alpha measured after 20 hrs by AlphaLISA assay; assay type: cell-based
# T1 sequence (Q9NYK1 whole entry): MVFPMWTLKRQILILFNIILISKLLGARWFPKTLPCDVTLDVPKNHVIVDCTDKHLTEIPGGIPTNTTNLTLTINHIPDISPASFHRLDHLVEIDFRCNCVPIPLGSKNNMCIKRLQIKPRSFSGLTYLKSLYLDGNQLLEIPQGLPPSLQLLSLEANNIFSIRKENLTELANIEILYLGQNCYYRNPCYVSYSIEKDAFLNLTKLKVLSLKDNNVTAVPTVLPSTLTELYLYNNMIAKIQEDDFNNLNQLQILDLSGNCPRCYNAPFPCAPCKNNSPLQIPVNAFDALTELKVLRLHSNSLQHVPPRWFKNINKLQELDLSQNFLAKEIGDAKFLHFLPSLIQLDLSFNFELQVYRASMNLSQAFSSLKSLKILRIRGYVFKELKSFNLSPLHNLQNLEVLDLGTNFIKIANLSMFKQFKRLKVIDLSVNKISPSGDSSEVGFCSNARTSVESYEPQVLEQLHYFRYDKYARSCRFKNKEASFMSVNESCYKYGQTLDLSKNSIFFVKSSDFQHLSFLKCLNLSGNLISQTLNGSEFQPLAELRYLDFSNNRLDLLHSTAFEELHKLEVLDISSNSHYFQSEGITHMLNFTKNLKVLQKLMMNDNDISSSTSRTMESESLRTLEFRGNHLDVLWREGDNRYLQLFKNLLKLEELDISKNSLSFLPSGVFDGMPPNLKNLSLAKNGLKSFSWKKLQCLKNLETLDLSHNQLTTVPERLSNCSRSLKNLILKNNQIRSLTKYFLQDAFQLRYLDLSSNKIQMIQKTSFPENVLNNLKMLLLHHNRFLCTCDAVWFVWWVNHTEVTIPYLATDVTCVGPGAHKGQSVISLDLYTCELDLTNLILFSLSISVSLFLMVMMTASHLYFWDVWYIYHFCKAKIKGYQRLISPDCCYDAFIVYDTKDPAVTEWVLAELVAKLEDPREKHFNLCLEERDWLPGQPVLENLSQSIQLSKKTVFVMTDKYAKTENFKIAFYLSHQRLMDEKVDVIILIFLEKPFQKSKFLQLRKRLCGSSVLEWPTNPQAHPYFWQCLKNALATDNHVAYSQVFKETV
# [9] = Oral bioavailability in rat at 1 mg/ml; assay type: ADME, organism-based; details: in vivo
# [10] = Cmax in rat at 1 mg/ml, po; assay type: ADME; design: dose 1 mg/ml, route po; details: in vivo
# [11] = molecular target: T2, Toll-like receptor 7 (Mus musculus, UniProt P58681); experiment: Antagonist activity at TLR7 in mouse Splenocyte assessed as reduction in IFN-alpha level measured after 20 hrs by Spectramax M5 method; assay type: cell-based
# T2 sequence (P58681 whole entry): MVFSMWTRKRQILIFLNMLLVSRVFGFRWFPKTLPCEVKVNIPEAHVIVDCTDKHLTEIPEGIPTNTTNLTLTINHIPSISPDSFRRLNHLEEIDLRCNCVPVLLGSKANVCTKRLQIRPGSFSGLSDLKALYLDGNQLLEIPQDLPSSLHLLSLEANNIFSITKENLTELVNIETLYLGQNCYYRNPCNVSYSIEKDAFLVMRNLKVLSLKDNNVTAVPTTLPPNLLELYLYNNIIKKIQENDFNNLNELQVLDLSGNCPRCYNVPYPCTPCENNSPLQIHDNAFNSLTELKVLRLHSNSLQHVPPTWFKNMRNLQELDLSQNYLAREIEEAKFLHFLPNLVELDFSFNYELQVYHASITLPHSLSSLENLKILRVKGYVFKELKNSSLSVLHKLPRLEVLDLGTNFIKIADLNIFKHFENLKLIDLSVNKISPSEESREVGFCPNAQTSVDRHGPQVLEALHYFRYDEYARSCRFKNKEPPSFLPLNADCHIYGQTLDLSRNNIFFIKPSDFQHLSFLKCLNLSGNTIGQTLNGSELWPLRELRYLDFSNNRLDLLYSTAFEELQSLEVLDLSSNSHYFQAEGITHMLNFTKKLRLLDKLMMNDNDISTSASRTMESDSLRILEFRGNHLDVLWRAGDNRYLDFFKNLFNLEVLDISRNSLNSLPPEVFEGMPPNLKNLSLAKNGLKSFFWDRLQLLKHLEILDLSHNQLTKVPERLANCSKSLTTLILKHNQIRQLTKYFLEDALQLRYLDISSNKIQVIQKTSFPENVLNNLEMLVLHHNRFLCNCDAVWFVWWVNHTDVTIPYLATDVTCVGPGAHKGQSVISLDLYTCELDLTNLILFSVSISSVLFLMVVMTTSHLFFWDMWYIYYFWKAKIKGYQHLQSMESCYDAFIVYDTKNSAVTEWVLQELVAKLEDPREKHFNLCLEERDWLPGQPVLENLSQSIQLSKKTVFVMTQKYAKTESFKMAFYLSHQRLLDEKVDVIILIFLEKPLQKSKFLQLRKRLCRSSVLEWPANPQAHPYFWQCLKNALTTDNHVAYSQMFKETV
# [12] = molecular target: Toll-like receptor 4 (Homo sapiens, UniProt O00206); experiment: Antagonist activity at TLR4 in human PBMC cells assessed as reduction in IL-6 level measured after 20 hrs by AlphaLISA assay; assay type: cell-based
# Chain of Toll-like receptor 4 (O00206 whole entry): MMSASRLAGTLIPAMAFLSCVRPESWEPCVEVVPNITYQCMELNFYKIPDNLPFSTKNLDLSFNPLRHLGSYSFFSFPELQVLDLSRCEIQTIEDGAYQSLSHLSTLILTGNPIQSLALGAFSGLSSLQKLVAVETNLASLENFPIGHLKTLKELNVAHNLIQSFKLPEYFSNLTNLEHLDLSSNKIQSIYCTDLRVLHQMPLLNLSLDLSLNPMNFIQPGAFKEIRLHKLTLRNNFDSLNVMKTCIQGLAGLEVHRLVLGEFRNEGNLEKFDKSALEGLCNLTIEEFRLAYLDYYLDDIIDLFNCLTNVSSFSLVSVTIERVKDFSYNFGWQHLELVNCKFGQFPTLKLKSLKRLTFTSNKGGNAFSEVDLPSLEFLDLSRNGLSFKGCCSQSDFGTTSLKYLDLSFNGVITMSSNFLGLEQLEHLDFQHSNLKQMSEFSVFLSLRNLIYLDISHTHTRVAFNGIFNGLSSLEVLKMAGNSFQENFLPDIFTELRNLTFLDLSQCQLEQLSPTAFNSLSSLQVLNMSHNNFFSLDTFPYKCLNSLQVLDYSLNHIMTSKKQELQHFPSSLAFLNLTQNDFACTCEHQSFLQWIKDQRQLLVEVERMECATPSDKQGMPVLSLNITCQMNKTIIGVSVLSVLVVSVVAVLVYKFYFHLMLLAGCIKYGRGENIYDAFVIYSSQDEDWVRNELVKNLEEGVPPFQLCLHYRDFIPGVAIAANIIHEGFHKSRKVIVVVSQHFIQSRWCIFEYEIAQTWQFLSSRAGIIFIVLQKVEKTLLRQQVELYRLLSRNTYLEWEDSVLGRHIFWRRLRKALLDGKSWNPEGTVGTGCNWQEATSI
# [13] = molecular target: Toll-like receptor 7 (Mus musculus) (UniProt P58681); experiment: In vivo antagonist activity against TLR7 in mouse assessed as suppression of IFN alpha level at 3 mg/kg, po measured at 3 hrs by LC-MS/MS analysis
SMILES,MRT [1],MRT [2],Vdss [3],Vdss [4],AUC [5],bioavailability [6],AUC [7],IC50 [8],bioavailability [9],Cmax [10],IC50 [11],IC50 [12],Activity [13]
CCNCC(=O)NC12CCC(Cn3nc(C)c4c3CCN(c3cc(C)nc5c3cnn5C)C4)(CC1)CC2,2.8 h,2.4 h,1 L/kg,3 L/kg,4.63 µM·h,10%,9.28 µM·h,17 nM,12%,48 nM,–,–,–
Cc1cc(N2CCc3c(c(C)nn3CC34CCC(N)(CC3)CC4)C2)c2cnn(C)c2n1,–,–,–,–,–,–,–,20 nM,–,–,74 nM,–,–
Cc1cc(N2CCc3c(c(C)nn3CC34CCC(NC(=O)[C@@H]5COCCN5)(CC3)CC4)C2)c2cnn(C)c2n1 [MHV-370],1.2 h,1 h,0.7 L/kg,1.3 L/kg,9.16 µM·h,32%,5.67 µM·h,–,52%,282 nM,9 nM,> 10000 nM,141 ng/mL
